Assay results as given in US20070258941A1, “Methods and compositions for remediation of disc herniation by modifying structure” (priority 2006, published 2007).
Values joined by “and” are separate entries in the source; they are usually repeats but may differ in a detail not shown here. Equal entries are not always repeated.

How the values were obtained:
[1] = test system: rabbit lumbar intervertebral discs; assay: Effect of polylysine on disc height (disc height index, DHI) after injection into rabbit lumbar discs; type: in vivo; details: for L2/3 DHI, Average / L2/3 DHI: injected disc L2/3; for L2/3 DHI, Average / L4/5 DHI, Average: average of six animals; for L2/3 DHI, Average / L2/3 DHI / L4/5 DHI, Average / L4/5 DHI: untreated L3/4 disc = 100; for L2/3 DHI / L4/5 DHI: individual animals 1-6; for L4/5 DHI, Average / L4/5 DHI: injected disc L4/5
Experimental: FIG. 1 is a set of bar graphs showing intervertebral disc heights in rabbits injected with 30-70 kDa polylysine at each of lumbar 2/3 and 4/5, compared with heights of control untreated lumbar discs 3/4 (100%). Disc heights were measured at each of two weeks (FIG. 1, Panel A), four weeks (FIG. 1, Panel B), and six weeks (FIG. 1, Panel C). A decrease in the DHI of approximately 20% was maintained for 6 weeks in this study.
Statistical Analyses: Statistical analyses were performed by one way ANOVA with Fisher's PLSD test as a post hoc test.
Rabbit discs (six animals) were injected with 30-70 kDa polylysine into discs L4/5 and L2/3. As controls, the L3/4 discs were untreated in each of the animals.
Disc height was measured at each of 2, 4 and 6 weeks after injection, and the normalized percentages of starting disc heights observed are shown in FIG. 1. Disc height was reduced by the treatment to about 80% of the initial values, and the decrease of 20% was maintained for the full 6-week observation period.

[2] = test system: bovine cartilage explants; assay: Distribution kinetics / permeation of FITC-labeled polylysine into cartilage explants (fluorescence of cryostat sections); type: in vitro ADME; details: for time for permeation to achieve maximal levels (completed): FITC-labeled polymer, cartilage explants submerged in solution
Experimental: FIG. 2 is a set of photographs of bovine cartilage explants that were incubated with FITC-labeled polylysine (15-30 kDa in size, panels F, G, H, I, and J; and 30-70 kDa in size, panels K, L, M, N, and O) or control untreated cartilage (FIG. 2 panels A, B, C, D, and E). Photographs were taken at each of time points 0.5 hour (FIG. 2, panels A, F, and K), 1.0 hour (FIG. 2, panels B, G, and L), 3 hours (FIG. 2, panels C, H, and M), 7 hours (FIG. 2, panels D, I, and N) and 12 hours (FIG. 2, panels E, J, and O).
After a predetermined time, tissue was washed, frozen, and 10 micron sections were produced using a cryostat.

Substance	L2/3 DHI, Average ([1]; 2 weeks after injection)	L2/3 DHI ([1]; 2 weeks after injection)	L4/5 DHI, Average ([1]; 2 weeks after injection)	L4/5 DHI ([1]; 2 weeks after injection)	L2/3 DHI, Average ([1]; 4 weeks after injection)	L2/3 DHI ([1]; 4 weeks after injection)	L4/5 DHI, Average ([1]; 4 weeks after injection)	L4/5 DHI ([1]; 4 weeks after injection)	L2/3 DHI, Average ([1]; 6 weeks after injection)	L2/3 DHI ([1]; 6 weeks after injection)	L4/5 DHI, Average ([1]; 6 weeks after injection)	L4/5 DHI ([1]; 6 weeks after injection)	disc height after treatment, of the initial values ([1]; rabbit discs L2/3 and L4/5, 2, 4 and 6 weeks after injection)	time for permeation to achieve maximal levels (completed) [2]	rapidity of permeation of cartilage ([2]; compared to the longer chain length (30-70 kDa))
polylysine [30-70 kDa polylysine]	79.48%	77.13% and 68.43% and 70.29% and 91.98% and 80.01% and 89.04%	78.67%	90.03% and 77.07% and 77.69% and 72.34% and 81.34% and 73.56%	74.86%	79.11% and 93.42% and 80.98% and 66.08% and 63.83% and 65.74%	79.65%	79.68% and 93.65% and 66.64% and 79.43% and 73.86% and 84.63%	79.51%	78.77% and 93.30% and 96.63% and 65.59% and 73.66% and 69.09%	81.57%	87.13% and 96.43% and 81.53% and 83.27% and 61.60% and 79.46%	about 80%	–	–
polylysine [longer polymer]	–	–	–	–	–	–	–	–	–	–	–	–	–	7 to 12 h	–
polylysine [shorter cationic polymer]	–	–	–	–	–	–	–	–	–	–	–	–	–	3 to 7 h	enhanced
